The values that follow come from patent US20160235686A1, “PROCESSES FOR PREPARING A SOLID POLYMER MATRIX CONTAINING A CORE MATERIAL BY PRESSURE CYCLING OF SUPERCRITICAL FLUID” (priority 2013, published 2016).

Non-standard residues stand in square brackets, D forms with d. Residues, ends and D or L forms follow the SMILES beside them. *: point of attachment. dPhe(4-NHCONH2) = NC(=O)Nc1ccc(C[C@@H](N)C(=O)O)cc1; Dihydroorotyl(S) = O=C1C[C@@H](C(=O)*)NC(=O)N1; dPhe(4-Cl) = N[C@H](Cc1ccc(Cl)cc1)C(=O)O; Phe(4-NH2) = Nc1ccc(C[C@H](N)C(=O)O)cc1; d2Nal = N[C@H](Cc1ccc2ccccc2c1)C(=O)O; Lys(iPr) = CC(C)NCCCC[C@H](N)C(=O)O; d3Pal = N[C@H](Cc1cccnc1)C(=O)O

This data set in a line: In vitro release testing of degarelix from microparticles. Particulars: effect of 10 pressure cycles vs no pressure cycling, manitol/acetate buffer pH 4, 37° C. The format is physicochemical. Here is the method:
In-vitro release of microparticles is conducted with a manitol/acetate buffer solution at pH 4. […] Each sample is analysed in triplicate.
A 25 mg sample is weighed out into a 25 mL volumetric flask. 1 mL of acetone is added to the volumetric flask to dissolve the microparticles. Once dissolved, the volumetric flask is topped up with water (approximately 24 mL), precipitating the polymer. A 1 mL sample of the supernatant is taken and centrifuged at 13000 rpm for 3 min. From this, a 200 μL sample is taken and analysed by HPLC. The loading determination method is carried out in triplicate and an average is taken.

For the compound `CC(=O)N[C@H](Cc1ccc2ccccc2c1)C(=O)N[C@H](Cc1ccc(Cl)cc1)C(=O)N[C@H](Cc1cccnc1)C(=O)N[C@@H](CO)C(=O)N[C@@H](Cc1ccc(NC(=O)[C@@H]2CC(=O)NC(=O)N2)cc1)C(=O)N[C@H](Cc1ccc(NC(N)=O)cc1)C(=O)N[C@@H](CC(C)C)C(=O)N[C@@H](CCCCNC(C)C)C(=O)N1CCC[C@H]1C(=O)N[C@H](C)C(N)=O` [degarelix] (Ac-[d2Nal][dPhe(4-Cl)][d3Pal]S[Phe(4-NH2)](Dihydroorotyl(S))[dPhe(4-NHCONH2)]L[Lys(iPr)]P[dA]-NH2), the “decrease in the initial burst release of degarelix from the formulation” value was “approximately 15%” (FIG. 1, PLGA formulation prepared with processing aid (DMSO)) and “approximately 3%” (FIG. 2, PLGA formulation prepared without a processing aid).
